According to patent US5312818A, “Method of protecting against and/or treating ulcerative gastrointestinal conditions using a thromboxane A2 receptor antagonist and combination useful in preventing and/or treating ulcers and/or inflammation” (E. R. Squibb & Sons, Inc., priority 1992, dated 1994):
Where two headings read alike, the source gives them in different places.

What was measured:
[1] = system: indomethacin-induced gastric ulcers; assay type: in vivo, male Sprague-Dawley rats; settings: for inhibition of gastric erosions: indomethacin treated rats; for % Ulcer Inhibition: Table 1
Description: (§1) The following experiment was carried out to evaluate thromboxane receptor involvement in other models of gastro-intestinal ulcer.
(§2) In two studies, SQ 33,961 (1 and 10 mg/kg, i.p.) was evaluated in models of gastric ulcer induced by indomethacin (20 mg/kg, s.c.) and aspirin (200 mg/kg, p.o.). In each of these experiments, a dose of SQ 33,961 or vehicle (9.5% ethanol in 0.02% Na2 CO3, pH 9; 5 mL/kg) was administered by intraperitoneal injection 60 minutes before administration of aspirin, aspirin vehicle (1% methyl cellulose; 5 mL/kg, p.o.), indomethacin, or indomethacin vehicle (3.2% Na2 CO3, pH 8; 5 mL/kg, s.c.) in fasted male Sprague-Dawley rats (174-352 g). Three hours later, the rats were sacrificed by CO2 asphyxiation, the stomachs excised and opened, the lumen rinsed with saline, and the number and areas of gastric lesions measured.

carrageenan paw edema = carrageenan paw edema model in rats; assay type: in vivo; settings: for effect on development of paw edema (in words): 10 mg/kg i.p.; for Paw Volume 3 hours after Carrageenan injection: SQ 33,961 10 mg/kg i.p. and/or indomethacin 10 mg/kg i.p., 7-8 rats
Description: Paw volumes were measured before and hourly after carageenan injection in the 4 groups (N=7-8 each).

[2] = system: aspirin-induced gastric ulcers; test: aspirin-induced gastric ulcers in rats; assay type: in vivo, male Sprague-Dawley rats; settings: for inhibition of gastric erosions: aspirin treated rats; for % Ulcer Inhibition: Table 1
Description: as §1
as §2, with “In two studies, SQ 33,961 (1 and 10 mg/kg, i.p.) was evaluated in models of gastric ulcer induced by indomethacin (20 mg/kg, s.c.) and aspirin (200 mg/kg, p.o.).” left out
*Aspirin Dose = 200 mg/kg, p.o. 1 hour after dosing with Test Agent. Rats
were sacrificed and ulcers measured 3 hours after aspirin administration.

[3] = system: taurocholic acid-induced ulcers; test: taurocholic acid-induced gastric ulcers in rats; assay type: in vivo; settings: i.p.
Description: The following experiment was conducted to determine the cytoprotective potential of the thromboxane receptor antagonist SQ 33,961 on taurocholic acid-induced ulcers in rats.
Fasted rats were treated with either vehicle (9.5% ethanol in 0.02% Na2 CO3, pH 9; 5 mL/kg, i.p.) or SQ 33,961 (0.01 to 10 mg/kg, i.p.) 60 minutes before administration of either vehicle (0.2N HCl, pH 2; 1.0 mL, p.o.) or taurocholic acid (100 mM, pH 2; 1.0 mL, p.o.). One hour later, rats were sacrificed and gastric lesion number and areas measured. There were no gastric erosions in the groups of rats challenged with the taurocholic acid vehicle.

COc1ccc2c(c1)c(CC(=O)O)c(C)n2C(=O)c1ccc(Cl)cc1 [Indomethacin, reference compound]
Gastric lesion area (mm^2) ([1]; Indomethacin (20 mg/kg, s.c.) + Vehicle (CONTROL), 16 rats, text calls it lesion area in mm^2): 2.90 ± 0.81
Average total lesion area ([1]; indomethacin 20 mg/kg, s.c., three hours, N=16): 2.9±0.8 mm^2
effect on development of paw edema (in words) (carrageenan paw edema): significantly inhibited edema formation
Paw Volume 3 hours after Carrageenan injection (carrageenan paw edema): 2.2 ± 0.08 mL

O=C(O)CCc1ccccc1C[C@@H]1[C@H](c2nc(C(=O)NCCCCC3CCCCC3)co2)[C@H]2CC[C@@H]1O2 [SQ 33,961, [1S-(1α,2α,3α,4α)]-2-[[3-[4-[[(4-cyclohexylbutyl)amino]carbonyl]-2-oxazolyl]-7-oxabicyclo[2.2.1]hept-2-yl]methyl]benzenepropanoic acid]
Average Gastric Lesion Area ([2]; 0.1 mg/kg, i.p., N=6, Table 3, aspirin 200 mg/kg, p.o.): 6.21 ± 1.66 mm^2
Average Gastric Lesion Area ([2]; 1.0 mg/kg, i.p., N=9, Table 3, aspirin 200 mg/kg, p.o.): 2.86 ± 1.02 mm^2
inhibition of gastric erosions ([2]; 1 mg/kg, i.p.): about 70%
Average Gastric Lesion Area ([2]; 10.0 mg/kg, i.p., N=9, Table 3, aspirin 200 mg/kg, p.o.): 0.62 ± 0.34 mm^2
inhibition of gastric erosions ([2]; 10 mg/kg, i.p.): ~95%
Average Gastric Lesion Area ([2]; Aspirin (200 mg/kg, p.o.) + 1 mg/kg, i.p., 9 rats): 2.86 ± 1.02
% Ulcer Inhibition ([2]; Aspirin (200 mg/kg, p.o.) + 1 mg/kg, i.p.): 73%
Average Gastric Lesion Area ([2]; Aspirin (200 mg/kg, p.o.) + 10 mg/kg, i.p., 9 rats): 0.62 ± 0.34
% Ulcer Inhibition ([2]; Aspirin (200 mg/kg, p.o.) + 10 mg/kg, i.p.): 94%
effect on aspirin-induced gastric erosions (in words) ([2]; aspirin 200 mg/kg, p.o.): dose related reductions in gastric erosions
reduction of gastric lesion area (in words) ([3]; 0.01 to 10 mg/kg): dose-related reduction of gastric lesion area
ED50 ([3]; Rattus norvegicus, ip, 1 h, 60 minutes before taurocholic acid (100 mM, pH 2; 1.0 mL, p.o.), measured one hour later, read-out: ID50, reduction of gastric lesion area): 0.012 mg/kg
inhibition of gastric erosions ([1]; 1 mg/kg, i.p.): about 70%
inhibition of gastric erosions ([1]; 10 mg/kg, i.p.): ~95%
Gastric lesion area (mm^2) ([1]; Indomethacin (20 mg/kg, s.c.) + 1 mg/kg, i.p., 15 rats): 0.94 ± 0.41
% Ulcer Inhibition ([1]; Indomethacin (20 mg/kg, s.c.) + 1 mg/kg, i.p.): 68%
Gastric lesion area (mm^2) ([1]; Indomethacin (20 mg/kg, s.c.) + 10 mg/kg, i.p., 15 rats): 0.08 ± 0.07
% Ulcer Inhibition ([1]; Indomethacin (20 mg/kg, s.c.) + 10 mg/kg, i.p.): 97%
effect on development of paw edema (in words) (carrageenan paw edema): no significant effect on the development of paw edema
Paw Volume 3 hours after Carrageenan injection (carrageenan paw edema): 2.6 ± 0.11 mL
effect on antiphlogistic activity of indomethacin (in words) (carrageenan paw edema; SQ 33,961 10 mg/kg i.p., indomethacin 10 mg/kg i.p.): this antiphlogistic activity was not inhibited

CC(=O)Oc1ccccc1C(=O)O [Aspirin, reference compound]
Average Gastric Lesion Area ([2]; Aspirin (200 mg/kg, p.o.) + Vehicle (CONTROL), 11 rats, text calls it lesion area in mm^2): 10.5 ± 2.01
severity of gastric lesions (in words) ([2]; aspirin 200 mg/kg, p.o. versus indomethacin 20 mg/kg, s.c.): more severe gastric lesions than indomethacin
Average total lesion area ([2]; aspirin 200 mg/kg, p.o., three hours, N=11): 10.5±2.1 mm^2

O=C(O)c1ccc(OCCn2ccnc2)cc1 [Dazoxiben, reference compound]
Average Gastric Lesion Area ([2]; 50.0 mg/kg, i.p., N=6, Table 3, aspirin 200 mg/kg, p.o.): 25.40 ± 8.50 mm^2
effect on aspirin-induced gastric erosions (in words) ([2]; aspirin 200 mg/kg, p.o.): did not diminish aspirin-induced gastric erosions

O=C(O)Cc1ccc(CCNS(=O)(=O)c2ccc(Cl)cc2)cc1 [BM 13,505, 4-[2-(4-chlorobenzenesulfonamido)ethyl]phenylacetic acid, reference compound]
Average Gastric Lesion Area ([2]; 20.00 mg/kg, i.p., N=9, Table 3, aspirin 200 mg/kg, p.o., vehicle 11.18 ± 2.35): 4.68 ± 1.63 mm^2
effect on aspirin-induced gastric erosions (in words) ([2]; aspirin 200 mg/kg, p.o.): significantly diminished aspirin-induced gastric erosions
